The values that follow come from ChEMBL document CHEMBL1201862, “PubChem BioAssay data set” (2004).

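Grown in 96-well plates, cells were treated for 48 hours with each compound at five concentrations. Insufficient inhibition: endpoint recorded as highest concentration tested. GI50 marks 50% less growth.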 Calls of active or inactive are those of the source. Cut-off read from the data, not from the text of the source: active = GI50 up to about 1.1 µM and inactive = higher.

Test systems include A498; CCRF-CEM; COLO 205; HOP-62; HOP-92; HT-29; Hs-578T; MCF7; MOLT-4; Malme-3M; NCI-H226; NCI-H522; PC-3; RPMI-8226; SK-MEL-28; SK-MEL-2; SNB-75; SW-620; UO-31; OVCAR-5.
What all share (assay): inhibition of tumour cell growth, NCI panel, 48 h

`Oc1cc(-c2cccc(OC(F)(F)F)c2)nc2cc3c(cc12)OCO3`: the GI50 is 0.516 µM (active) in the experiment on A498; 0.0301 µM (active) with CCRF-CEM; 1.24 µM (inactive) with COLO 205; 0.119 µM (active) in the experiment on HOP-62; 1.05 µM (active) in the experiment with HOP-92; 1.96 µM (inactive) with HT-29. The GI50 in the experiment on Hs-578T is 0.1 µM (active); with MCF7, 0.135 µM (active); in the experiment on MOLT-4, 0.0371 µM (active); in the experiment with Malme-3M, 0.0435 µM (active); with NCI-H226, 0.239 µM (active); with NCI-H522, 0.0441 µM (active). The GI50 was 0.0366 µM (active) in the experiment on PC-3; 0.0508 µM (active) with RPMI-8226; 0.323 µM (active) in the experiment with SK-MEL-28; 0.169 µM (active) in the experiment on SK-MEL-2; 0.568 µM (active) in the experiment with SNB-75; 0.0883 µM (active) in the experiment with SW-620. Besides, the GI50 with UO-31 is 0.174 µM (active).

As to `O=C1CSC2(CC(/C=C/c3cccs3)=NN2c2cccc(S(=O)(=O)O)c2)N1c1nc2ccccc2s1` (stereo unspecified), the GI50 with A498 was 15.6 µM (inactive); in the experiment on CCRF-CEM, 33 µM (inactive); with COLO 205, > 100 µM (inactive); with HOP-92, 41.2 µM (inactive); with HT-29, > 100 µM (inactive); in the experiment with Hs-578T, > 100 µM (inactive). Also, the GI50 in the experiment with MCF7 was 54.1 µM (inactive); in the experiment with MOLT-4, 35.7 µM (inactive); in the experiment on Malme-3M, > 100 µM (inactive); in the experiment with NCI-H226, 39.9 µM (inactive); in the experiment on NCI-H522, 64.9 µM (inactive); with OVCAR-5 it was > 100 µM (inactive). Further, the GI50 in the experiment with PC-3 was > 100 µM (inactive); with RPMI-8226, 31.1 µM (inactive); with SK-MEL-28, > 100 µM (inactive); in the experiment on SK-MEL-2 it was > 100 µM (inactive); in the experiment on SNB-75, > 100 µM (inactive); with SW-620, > 100 µM (inactive). Besides, the GI50 in the experiment on UO-31 is 83.6 µM (inactive).

For the compound `CC(C)(C)OC(=O)NCC(=O)NC1CC=CCC1NC(=O)CNC(=O)OC(C)(C)C` (stereo unspecified), the GI50 in the experiment with A498, with CCRF-CEM, in the experiment on COLO 205, with HOP-62, in the experiment with HOP-92 and in the experiment with HT-29 was > 100 µM (inactive) throughout. The GI50 with Hs-578T, in the experiment on MCF7, in the experiment with MOLT-4, in the experiment on Malme-3M, in the experiment with NCI-H226 and in the experiment on NCI-H522 was > 100 µM (inactive) throughout. Also, the GI50 in the experiment with OVCAR-5, in the experiment on PC-3, in the experiment on RPMI-8226, in the experiment with SK-MEL-28, in the experiment on SNB-75 and in the experiment on SW-620 was > 100 µM (inactive) each time. In addition, the GI50 in the experiment with UO-31 was > 100 µM (inactive).

For the compound `CCOC(=O)[C@@]1(C(C)=O)CC(C)=C(C)C[S@@+]1[O-]`, the GI50 was > 100 µM (inactive) in the experiment on A498; > 100 µM (inactive) in the experiment on COLO 205; > 100 µM (inactive) with HOP-62; 50.2 µM (inactive) in the experiment with HOP-92; > 100 µM (inactive) with Hs-578T; > 100 µM (inactive) in the experiment on MCF7. Besides, the GI50 in the experiment on MOLT-4, in the experiment on Malme-3M, in the experiment with NCI-H226, in the experiment with NCI-H522, in the experiment with OVCAR-5 and in the experiment on PC-3 was > 100 µM (inactive) throughout. The GI50 in the experiment on RPMI-8226, in the experiment with SK-MEL-28, in the experiment with SK-MEL-2, with SNB-75, in the experiment with SW-620 and in the experiment with UO-31 was > 100 µM (inactive) each time.

Take `CC(C)(C)C1=C(Br)C(C(C)(C)C)OP1(=O)O` (stereo unspecified): the GI50 in the experiment with A498, in the experiment on COLO 205, with HOP-62, in the experiment with HOP-92, in the experiment on HT-29 and in the experiment on Hs-578T was > 100 µM (inactive) each time. In addition, the GI50 with MCF7, with Malme-3M, with NCI-H226, in the experiment with NCI-H522, with OVCAR-5 and with PC-3 was > 100 µM (inactive) in each case. Also, the GI50 with SK-MEL-28, in the experiment on SK-MEL-2, with SNB-75 and in the experiment on UO-31 was > 100 µM (inactive) in each case.

As for `O=C(/C=C/c1cccc(Oc2ccccc2)c1)NCc1ccc(C(=O)NCCc2ccccc2)cc1`, the GI50 in the experiment on A498 is > 100 µM (inactive); in the experiment with COLO 205 it was > 100 µM (inactive); with HOP-62, 27.2 µM (inactive); with HOP-92 it was > 100 µM (inactive); in the experiment with HT-29, 16.9 µM (inactive); in the experiment with Hs-578T, > 100 µM (inactive). In addition, the GI50 in the experiment on MCF7 is > 100 µM (inactive); with MOLT-4 it was > 100 µM (inactive); with Malme-3M, > 100 µM (inactive); with NCI-H226, > 100 µM (inactive); in the experiment on NCI-H522, 75 µM (inactive); in the experiment on OVCAR-5, > 100 µM (inactive). Further, the GI50 with PC-3 was > 100 µM (inactive); with RPMI-8226, > 100 µM (inactive); in the experiment on SK-MEL-28 it was > 100 µM (inactive); in the experiment on SK-MEL-2 it was > 100 µM (inactive); in the experiment with SNB-75 it was 29.4 µM (inactive); in the experiment with SW-620 it was > 100 µM (inactive). The GI50 with UO-31 is > 100 µM (inactive).

Take `CCN(CC)C(=S)SC(=S)N(CC)CC`: the GI50 was 47.3 µM (inactive) with A498; 18.3 µM (inactive) with COLO 205; 53.7 µM (inactive) with HOP-62; 39.4 µM (inactive) in the experiment on HOP-92; 50.7 µM (inactive) with Hs-578T; 34.8 µM (inactive) in the experiment on MCF7. In addition, the GI50 with MOLT-4 is 26.4 µM (inactive); with Malme-3M, 23.3 µM (inactive); in the experiment on NCI-H226, 33.7 µM (inactive); with NCI-H522, 0.0951 µM (active); with OVCAR-5 it was > 100 µM (inactive); in the experiment with PC-3, 38.1 µM (inactive). In addition, the GI50 was 15.6 µM (inactive) with RPMI-8226; 36.6 µM (inactive) with SK-MEL-28; 31.3 µM (inactive) with SK-MEL-2; 31.3 µM (inactive) in the experiment on SNB-75; 28.6 µM (inactive) in the experiment on SW-620; 30.3 µM (inactive) in the experiment on UO-31.

Regarding `CCC(C#N)NC(=O)NC(C#N)CC` (stereo unspecified), the GI50 in the experiment on A498 was > 100 µM (inactive); in the experiment on CCRF-CEM, > 100 µM (inactive); in the experiment on COLO 205, > 100 µM (inactive); with HOP-62, > 100 µM (inactive); with HOP-92, 31.7 µM (inactive); with HT-29, > 100 µM (inactive). Also, the GI50 in the experiment on Hs-578T is > 100 µM (inactive); with MCF7, > 100 µM (inactive); in the experiment on MOLT-4, 28.5 µM (inactive); in the experiment with Malme-3M, > 100 µM (inactive); with NCI-H226, > 100 µM (inactive); with NCI-H522, > 100 µM (inactive). For the same compound, the GI50 with OVCAR-5 is > 100 µM (inactive); in the experiment on PC-3 it was 91.8 µM (inactive); with RPMI-8226, > 100 µM (inactive); in the experiment with SK-MEL-2, > 100 µM (inactive); in the experiment on SW-620 it was > 100 µM (inactive); in the experiment with UO-31, 58.5 µM (inactive).
